In patent US10385024B2, “Compounds and methods for inhibiting NHE-mediated antiport in the treatment of disorders associated with fluid retention or salt overload and gastrointestinal tract disorders” (Ardelyx, Inc., priority 2012, dated 2019):

Assays:
Fecal recovery = format: in vivo, Sprague Dawley rats; details: rat, 1 mg/kg oral gavage; for dose excreted: male, Sprague-Dawley, faeces
Protocol: Three male Sprague Dawley rats were administered 1 mg/kg test compound by oral gavage. Feces were collected from study animals from 0-48 or 0-72 hours after dosing, dried by lyophilization, and homogenized. Replicate aliquots of 40-60 mg each were subjected to extraction/protein precipitation with 7:1 acetonitrile:water and centrifuged. Supernatants were diluted 1:10 in 50:50 acetonitrile:water prior to analysis by LC-MS/MS. Compound concentrations, determined by interpolation from a standard calibration curve prepared in blank feces matrix, were converted to the percentage of dosed material recovered by taking into account the total collected fecal matter. The percent recovery for each rat was reported as the mean of the calculations from replicate samples. The overall percent recovery (Fecal Recovery [%]) was reported as the mean percent recovery from three rats. Accurate quality control sample recoveries were confirmed in each run, and extraction efficiency was periodically verified.

Rat NHE-3 [1] = molecular target: T1, Rat NHE-3 (Rattus norvegicus, UniProt P26433); assay: Cell-based assay of NHE-3 activity (persistent inhibition, after washout); details: OK cells with rat NHE-3 gene, 60 min incubation, recovery initiated 40 min after compound washout; for IC50: read-out: Rat NHE3 pIC50 (persistent) (converted)
T1 construct: expressed in transfected cells; host or cells: Opossum kidney (OK) cells (ATCC), transfected by electroporation
T1 sequence (P26433 29-831): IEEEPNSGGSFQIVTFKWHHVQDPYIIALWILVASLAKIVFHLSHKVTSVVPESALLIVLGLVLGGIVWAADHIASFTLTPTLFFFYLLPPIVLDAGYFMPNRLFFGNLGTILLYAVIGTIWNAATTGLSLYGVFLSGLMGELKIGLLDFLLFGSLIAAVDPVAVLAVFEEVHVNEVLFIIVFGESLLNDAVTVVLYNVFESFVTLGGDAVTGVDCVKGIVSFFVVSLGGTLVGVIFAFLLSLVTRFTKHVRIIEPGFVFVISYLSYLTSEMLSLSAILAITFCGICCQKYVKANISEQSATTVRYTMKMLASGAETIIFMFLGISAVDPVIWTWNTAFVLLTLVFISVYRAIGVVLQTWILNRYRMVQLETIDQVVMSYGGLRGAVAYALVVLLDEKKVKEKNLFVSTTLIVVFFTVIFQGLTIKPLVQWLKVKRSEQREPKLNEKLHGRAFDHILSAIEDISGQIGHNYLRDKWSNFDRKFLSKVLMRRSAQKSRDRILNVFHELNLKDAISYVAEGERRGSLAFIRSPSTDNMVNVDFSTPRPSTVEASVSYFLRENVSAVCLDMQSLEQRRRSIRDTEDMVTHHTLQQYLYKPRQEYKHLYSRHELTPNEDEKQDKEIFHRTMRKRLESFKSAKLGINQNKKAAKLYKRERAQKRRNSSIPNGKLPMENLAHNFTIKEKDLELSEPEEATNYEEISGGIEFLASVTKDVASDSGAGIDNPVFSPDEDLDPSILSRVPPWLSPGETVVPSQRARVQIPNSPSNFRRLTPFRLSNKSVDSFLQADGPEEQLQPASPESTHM
Method in brief: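 OK cells transiently expressing rat NHE-3 were exposed to 0-30 μM compound in NaCl-HEPES pH 7.4 for 60 min, then washed free of drug before NH4Cl/BCECF-AM loading and acid-loading in Na+-free choline buffer. Na+-dependent pH recovery rates (mean of ≥2 replicates) gave pIC50.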

Rat NHE-3 [2] = molecular target: T1, Rat NHE-3; assay: Cell-based assay of NHE-3 activity (rat NHE-3 prompt inhibition); details: OK cells with rat NHE-3 gene, compound present during pH recovery; for IC50: read-out: Rat NHE3 pIC50 (prompt) (converted)
Method in brief: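 Opossum kidney cells electroporated with rat or human NHE-3, loaded with 5 μM BCECF-AM in NH4Cl-HEPES pH 7.4 for 30 min at RT, then acidified 10 min in Na+-free choline HEPES. Na+-dependent pH recovery rates from BCECF fluorescence, averaged over ≥2 replicates, gave pIC50.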

[3] = system: absorption of sodium from the intestinal lumen; assay: Inhibition of intestinal sodium absorption (urinary sodium and fecal form); format: in vivo, Sprague-Dawley rats; details: rat; for response vs control in vivo at 3 mg/kg: 3 mg/kg oral gavage, urine 16 h post-dose, asterisks = significance vs vehicle (*P<0.05, **P<0.01, ***P<0.001), read-out: uNa (% of vehicle); for FFS: fecal form score, scale 1 (normal pellet) to 5 (liquid fecal streams), group average, 3 mg/kg oral, 16 h post-dose, vehicle = 1
Method in brief: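 Sprague-Dawley rats (8 weeks, n=6) dosed by oral gavage with compound or water vehicle (10 mL/kg) in late afternoon, then housed in metabolic cages. Over 16 h, urinary sodium measured by ion chromatography and expressed as % of vehicle mean; fecal form scored 1–5, averaged from two observations.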

Row | Structure (SMILES) | dose excreted (Fecal recovery; collection time 48 h) | IC50 (Rat NHE-3 [1]) | IC50 (Rat NHE-3 [2]) | response vs control in vivo at 3 mg/kg [3] | dose excreted (Fecal recovery; collection time 72 h) | Fecal Recovery (Fecal recovery; collection time 48 h) | Rat NHE3 pIC50 (persistent) (Rat NHE-3 [1]) | Rat NHE3 pIC50 (prompt) (Rat NHE-3 [2]) | FFS [3]
1 | CN1Cc2c(Cl)cc(Cl)cc2[C@H](c2cccc(S(=O)(=O)NCCOCCOCCNC(=O)CCC(N)(CCC(=O)NCCOCCOCCNS(=O)(=O)c3cccc([C@@H]4CN(C)Cc5c(Cl)cc(Cl)cc54)c3)CCC(=O)NCCOCCOCCNS(=O)(=O)c3cccc([C@@H]4CN(C)Cc5c(Cl)cc(Cl)cc54)c3)c2)C1 [Example 2, 4-amino-N^1,N^7-bis(2-(2-(2-(3-((S)-6,8-dichloro-2-methyl-1,2,3,4-tetrahydroisoquinolin-4-yl)phenylsulfonamido)ethoxy)ethoxy)ethyl)-4-(3-(2-(2-(2-(3-((S)-6,8-dichloro-2-methyl-1,2,3,4-tetrahydroisoquinolin-4-yl)phenylsulfonamido)ethoxy)ethoxy)ethylamino)-3-oxopropyl)heptanediamide] | 87% | < 100 nM | < 100 nM | < 35% |  |  |  |  | 
2 | CN1Cc2c(Cl)cc(Cl)cc2[C@H](c2cccc(S(=O)(=O)NCCOCCOCCNC(=O)CCC(CCC(=O)NCCOCCOCCNS(=O)(=O)c3cccc([C@@H]4CN(C)Cc5c(Cl)cc(Cl)cc54)c3)(CCC(=O)NCCOCCOCCNS(=O)(=O)c3cccc([C@@H]4CN(C)Cc5c(Cl)cc(Cl)cc54)c3)NC(=O)NCCN3CCOCC3)c2)C1 [Example 17, N^1,N^7-bis(2-(2-(2-(3-((S)-6,8-dichloro-2-methyl-1,2,3,4-tetrahydroisoquinolin-4-yl)phenylsulfonamido)ethoxy)ethoxy)ethyl)-4-(3-(2-(2-(2-(3-((S)-6,8-dichloro-2-methyl-1,2,3,4-tetrahydroisoquinolin-4-yl)phenylsulfonamido)ethoxy)ethoxy)ethylamino)-3-oxopropyl)-4-(3-(2-morpholinoethyl)ureido)heptanediamide] |  | < 100 nM | < 100 nM | < 35% | 96.9% |  |  |  | 
3 | CN1Cc2c(Cl)cc(Cl)cc2[C@H](c2cccc(S(=O)(=O)NCCOCCOCCNC(=O)CCC(CCC(=O)NCCOCCOCCNS(=O)(=O)c3cccc([C@@H]4CN(C)Cc5c(Cl)cc(Cl)cc54)c3)(CCC(=O)NCCOCCOCCNS(=O)(=O)c3cccc([C@@H]4CN(C)Cc5c(Cl)cc(Cl)cc54)c3)NC(=O)CCC(=O)O)c2)C1 [Example 40] |  |  |  | < 35% |  | 99.1% | C (C NHE3 pIC50 > 7) | C (C NHE3 pIC50 > 7) | 
4 | CN1Cc2c(Cl)cc(Cl)cc2[C@H](c2cccc(S(=O)(=O)NCCOCCOCCNC(=O)CCC(CCC(=O)NCCOCCOCCNS(=O)(=O)c3cccc([C@@H]4CN(C)Cc5c(Cl)cc(Cl)cc54)c3)(CCC(=O)NCCOCCOCCNS(=O)(=O)c3cccc([C@@H]4CN(C)Cc5c(Cl)cc(Cl)cc54)c3)NC(=O)NCC(=O)O)c2)C1 [Example 7, 18-(3-((S)-6,8-dichloro-2-methyl-1,2,3,4-tetrahydroisoquinolin-4-yl)phenylsulfonamido)-6,6-bis(3-(2-(2-(2-(3-((S)-6,8-dichloro-2-methyl-1,2,3,4-tetrahydroisoquinolin-4-yl)phenylsulfonamido)ethoxy)ethoxy)ethylamino)-3-oxopropyl)-4,9-dioxo-13,16-dioxa-3,5,10-triazaoctadecan-1-oic acid] | 83.2% | < 100 nM | < 100 nM | < 35% |  |  |  |  | 
5 | CN1Cc2c(Cl)cc(Cl)cc2[C@H](c2cccc(S(=O)(=O)NCCOCCOCCNC(=O)CCC(CCC(=O)NCCOCCOCCNS(=O)(=O)c3cccc([C@@H]4CN(C)Cc5c(Cl)cc(Cl)cc54)c3)(CCC(=O)NCCOCCOCCNS(=O)(=O)c3cccc([C@@H]4CN(C)Cc5c(Cl)cc(Cl)cc54)c3)NC(=O)COCC(=O)O)c2)C1 [Example 6, 1-(3-((S)-6,8-dichloro-2-methyl-1,2,3,4-tetrahydroisoquinolin-4-yl)phenylsulfonamido)-13,13-bis(3-(2-(2-(2-(3-((S)-6,8-dichloro-2-methyl-1,2,3,4-tetrahydroisoquinolin-4-yl)phenylsulfonamido)ethoxy)ethoxy)ethylamino)-3-oxopropyl)-10,15-dioxo-3,6,17-trioxa-9,14-diazanonadecan-19-oic Acid] | 51.5% | < 100 nM | < 100 nM | < 35% |  |  |  |  | 
6 | CN(C)CC(=O)NC(CCC(=O)NCCOCCOCCNS(=O)(=O)c1cccc([C@@H]2CN(C)Cc3c(Cl)cc(Cl)cc32)c1)(CCC(=O)NCCOCCOCCNS(=O)(=O)c1cccc([C@@H]2CN(C)Cc3c(Cl)cc(Cl)cc32)c1)CCC(=O)NCCOCCOCCNS(=O)(=O)c1cccc([C@@H]2CN(C)Cc3c(Cl)cc(Cl)cc32)c1 [Example 14, N1,N7-bis(2-(2-(2-(3-((S)-6,8-dichloro-2-methyl-1,2,3,4-tetrahydroisoquinolin-4-yl)phenylsulfonamido)ethoxy)ethoxy)ethyl)-4-(3-(2-(2-(2-(3-((S)-6,8-dichloro-2-methyl-1,2,3,4-tetrahydroisoquinolin-4-yl)phenylsulfonamido)ethoxy)ethoxy)ethylamino)-3-oxopropyl)-4-(2-(dimethylamino)acetamido)heptanediamide] |  | < 100 nM | < 100 nM | < 35% | 75.3% |  |  |  | 
7 | CN1Cc2c(Cl)cc(Cl)cc2[C@H](c2cccc(S(=O)(=O)NCCOCCOCCNC(=O)CCC(CCC(=O)NCCOCCOCCNS(=O)(=O)c3cccc([C@@H]4CN(C)Cc5c(Cl)cc(Cl)cc54)c3)(CCC(=O)NCCOCCOCCNS(=O)(=O)c3cccc([C@@H]4CN(C)Cc5c(Cl)cc(Cl)cc54)c3)NC(=O)NC(CO)(CO)CO)c2)C1 [Example 11, N^1,N^7-bis(2-(2-(2-(3-((S)-6,8-dichloro-2-methyl-1,2,3,4-tetrahydroisoquinolin-4-yl)phenylsulfonamido)ethoxy)ethoxy)ethyl)-4-(3-(2-(2-(2-(3-((S)-6,8-dichloro-2-methyl-1,2,3,4-tetrahydroisoquinolin-4-yl)phenylsulfonamido)ethoxy)ethoxy)ethylamino)-3-oxopropyl)-4-(3-(1,3-dihydroxy-2-(hydroxymethyl)propan-2-yl)ureido)heptanediamide] | 64.1% | < 100 nM | > 10000 nM | 35 to 75% |  |  |  |  | 
8 | CN1Cc2c(Cl)cc(Cl)cc2[C@H](c2cccc(S(=O)(=O)NCCOCCOCCN(C)C(=O)NCCCN(CCCNC(=O)N(C)CCOCCOCCNS(=O)(=O)c3cccc([C@@H]4CN(C)Cc5c(Cl)cc(Cl)cc54)c3)CCCNC(=O)N(C)CCOCCOCCNS(=O)(=O)c3cccc([C@@H]4CN(C)Cc5c(Cl)cc(Cl)cc54)c3)c2)C1 [Example 55] | 64.6% |  |  | 35 to 75% |  |  | C (C NHE3 pIC50 > 7) | B (B NHE3 pIC50 5-7) | 2
9 | CN1Cc2c(Cl)cc(Cl)cc2[C@H](c2cccc(S(=O)(=O)NCCOCCOCCNC(=O)CCC(CCC(=O)NCCOCCOCCNS(=O)(=O)c3cccc([C@@H]4CN(C)Cc5c(Cl)cc(Cl)cc54)c3)(CCC(=O)NCCOCCOCCNS(=O)(=O)c3cccc([C@@H]4CN(C)Cc5c(Cl)cc(Cl)cc54)c3)N(C)C)c2)C1 [Example 4, N^1,N^7-bis(2-(2-(2-(3-((S)-6,8-dichloro-2-methyl-1,2,3,4-tetrahydroisoquinolin-4-yl)phenylsulfonamido)ethoxy)ethoxy)ethyl)-4-(3-(2-(2-(2-(3-((S)-6,8-dichloro-2-methyl-1,2,3,4-tetrahydroisoquinolin-4-yl)phenylsulfonamido)ethoxy)ethoxy)ethylamino)-3-oxopropyl)-4-(dimethylamino)heptanediamide] |  | < 100 nM | < 100 nM | < 35% |  |  |  |  | 2
10 | CN1Cc2c(Cl)cc(Cl)cc2[C@H](c2cccc(S(=O)(=O)NCCOCCOCCNC(=O)CCC(CCC(=O)NCCOCCOCCNS(=O)(=O)c3cccc([C@@H]4CN(C)Cc5c(Cl)cc(Cl)cc54)c3)(CCC(=O)NCCOCCOCCNS(=O)(=O)c3cccc([C@@H]4CN(C)Cc5c(Cl)cc(Cl)cc54)c3)NC(=O)CCCC(=O)O)c2)C1 [Example 36] |  |  |  | < 35% |  | 68% | C (C NHE3 pIC50 > 7) | C (C NHE3 pIC50 > 7) | 
